Where a name gives a salt, the structure may show the parent alone. Read-outs that look alike come from different tables or passages of the source.
Tests used:
[1] = tested on: Phosphorylated Ribosomal Protein S6 (RPS6); test: THP-1 RPS6 ELISA Assay; assay type: cell-based, Human; conditions: THP-1 cells, read-out: PI3Kγ_THP1_RPS6_ELISA IC50
Description: To measure the Phosphorylated Ribosomal Protein S6 (RPS6) in cell lysates, THP-1 cells (Human Acute Monocytic Leukemia) are purchased from ATCC (Manassas, Va.) and maintained in RPMI with 10% FBS (Gibco/Life Technologies, Carlsbad, Calif.). For the assay, THP-1 cells are serum starved overnight in RPMI, then plated in RPMI (2×10^5 cells/well in 90 μL) into 96-well flat-bottom tissue culture treated plates (Corning, Corning, N.Y.), in the presence or absence of a concentration range of test compounds. Covered plates are incubated for 2 hours at 37° C., 5% CO2 then treated with or without 10 nM MCP-1 (MYBioSource, San Diego, Calif.) for 15 minutes at 37° C., 5% CO2. Plates are centrifuged at 1600 RPM and supernatants are removed. Cells are lysed in Lysis Buffer (Cell Signaling, Danvers, Mass.) with Protease Inhibitor (Calbiochem/EMD, Germany), PMSF (Sigma, St Louis Mo.), HALTS (Thermo Fisher, Rockford, Ill.) for 30 min on wet ice. Cell lysates are frozen at −80° C. before testing. The lysates are tested in the Human/Mouse/Rat Phospho-RPS6 ELISA (R&D Systems, Inc. Minn, Minn.). The plate is measured using a microplate reader (SpectraMax M5 —Molecular Devices, LLC Sunnyvale, Calif.) set to 450 nm with a wavelength correction of 540. IC50 determination is performed by fitting the curve of inhibitor percent inhibition versus the log of the inhibitor concentration using the GraphPad Prism 5.0 software.

[2] = target: PI3Kγ (p110γ) Recombinant Human Protein (Homo sapiens (Human), UniProt P48736); test: PI3K-γ Scintillation Proximity Assay; assay type: biochemical; conditions: read-out: PI3Kγ IC50
Summary of the method: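 Radiometric SPA readout: […] bound to WGA beads after overnight shaking, IC50 derived from % activity of DMSO control. Reaction used human p110γ, 2 μM ATP, 20 μM PIP2, pH 6.7 MOPS buffer with MgCl2, DTT, CHAPS, 2% DMSO, room temperature.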

[3] = target: PI3Kδ (p110δ/p85α) Recombinant Human Protein (Homo sapiens (Human), UniProt O00329); test: PI3Kδ Scintillation Proximity Assay; assay type: biochemical
Summary of the method: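 Assay conditions: 2 μM ATP (radiolabelled), 20 μM PIP2, 3.4 nM PI3Kδ, 20 mM MOPS pH 6.7 with 10 mM MgCl2, 5 mM DTT, 0.03% CHAPS, 2 h at room temperature. Signal from bead-captured 33P product; IC50 versus solvent control.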

Chain of PI3Kδ (p110δ/p85α) Recombinant Human Protein (O00329 whole entry): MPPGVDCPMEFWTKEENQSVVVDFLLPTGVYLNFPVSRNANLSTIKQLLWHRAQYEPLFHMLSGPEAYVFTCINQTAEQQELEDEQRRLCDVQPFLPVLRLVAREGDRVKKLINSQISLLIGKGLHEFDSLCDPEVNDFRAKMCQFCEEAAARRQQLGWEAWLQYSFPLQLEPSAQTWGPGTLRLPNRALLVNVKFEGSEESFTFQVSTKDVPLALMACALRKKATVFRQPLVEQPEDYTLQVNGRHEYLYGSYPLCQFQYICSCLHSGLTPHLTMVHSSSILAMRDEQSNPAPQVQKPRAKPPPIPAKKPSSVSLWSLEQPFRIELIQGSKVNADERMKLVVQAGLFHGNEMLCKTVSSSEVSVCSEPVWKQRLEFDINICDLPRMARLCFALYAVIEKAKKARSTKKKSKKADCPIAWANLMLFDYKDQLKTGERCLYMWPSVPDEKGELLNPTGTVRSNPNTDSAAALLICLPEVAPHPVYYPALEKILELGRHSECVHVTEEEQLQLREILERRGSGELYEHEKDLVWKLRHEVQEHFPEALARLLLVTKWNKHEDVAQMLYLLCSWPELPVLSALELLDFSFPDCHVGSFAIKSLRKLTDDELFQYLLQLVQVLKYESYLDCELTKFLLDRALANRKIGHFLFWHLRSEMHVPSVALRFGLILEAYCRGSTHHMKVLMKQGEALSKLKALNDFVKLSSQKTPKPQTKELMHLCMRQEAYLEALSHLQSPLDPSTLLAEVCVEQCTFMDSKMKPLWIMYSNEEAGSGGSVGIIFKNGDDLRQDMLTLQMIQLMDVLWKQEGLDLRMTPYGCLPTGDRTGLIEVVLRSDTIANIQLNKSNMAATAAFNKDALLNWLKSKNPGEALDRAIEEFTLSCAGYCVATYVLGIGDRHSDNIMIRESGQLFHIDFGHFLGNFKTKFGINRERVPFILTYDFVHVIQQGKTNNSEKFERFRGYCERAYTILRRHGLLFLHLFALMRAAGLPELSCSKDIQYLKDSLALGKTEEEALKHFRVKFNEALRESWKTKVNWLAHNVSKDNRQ
Chain of PI3Kδ (p110δ/p85α) Recombinant Human Protein (P27986 whole entry partner): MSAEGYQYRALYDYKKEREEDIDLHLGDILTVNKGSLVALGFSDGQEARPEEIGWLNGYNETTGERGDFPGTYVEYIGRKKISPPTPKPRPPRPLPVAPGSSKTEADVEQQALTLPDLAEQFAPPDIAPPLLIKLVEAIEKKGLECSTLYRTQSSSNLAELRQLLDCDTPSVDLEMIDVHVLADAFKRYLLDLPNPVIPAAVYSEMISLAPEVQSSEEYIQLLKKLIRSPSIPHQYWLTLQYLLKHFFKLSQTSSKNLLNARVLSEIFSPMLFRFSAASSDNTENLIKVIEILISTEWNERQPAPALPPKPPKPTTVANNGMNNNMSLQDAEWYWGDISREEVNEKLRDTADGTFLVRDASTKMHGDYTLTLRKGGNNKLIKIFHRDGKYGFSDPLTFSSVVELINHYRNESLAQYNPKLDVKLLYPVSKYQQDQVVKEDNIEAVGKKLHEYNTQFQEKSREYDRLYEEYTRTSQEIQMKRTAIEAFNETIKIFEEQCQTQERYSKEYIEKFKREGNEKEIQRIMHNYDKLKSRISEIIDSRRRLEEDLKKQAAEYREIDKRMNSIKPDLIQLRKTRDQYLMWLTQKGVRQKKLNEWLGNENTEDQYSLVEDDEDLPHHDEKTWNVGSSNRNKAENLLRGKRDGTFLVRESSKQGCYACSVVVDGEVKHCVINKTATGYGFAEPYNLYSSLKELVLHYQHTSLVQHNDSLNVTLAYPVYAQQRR
Chain of PI3Kγ (p110γ) Recombinant Human Protein (P48736 whole entry): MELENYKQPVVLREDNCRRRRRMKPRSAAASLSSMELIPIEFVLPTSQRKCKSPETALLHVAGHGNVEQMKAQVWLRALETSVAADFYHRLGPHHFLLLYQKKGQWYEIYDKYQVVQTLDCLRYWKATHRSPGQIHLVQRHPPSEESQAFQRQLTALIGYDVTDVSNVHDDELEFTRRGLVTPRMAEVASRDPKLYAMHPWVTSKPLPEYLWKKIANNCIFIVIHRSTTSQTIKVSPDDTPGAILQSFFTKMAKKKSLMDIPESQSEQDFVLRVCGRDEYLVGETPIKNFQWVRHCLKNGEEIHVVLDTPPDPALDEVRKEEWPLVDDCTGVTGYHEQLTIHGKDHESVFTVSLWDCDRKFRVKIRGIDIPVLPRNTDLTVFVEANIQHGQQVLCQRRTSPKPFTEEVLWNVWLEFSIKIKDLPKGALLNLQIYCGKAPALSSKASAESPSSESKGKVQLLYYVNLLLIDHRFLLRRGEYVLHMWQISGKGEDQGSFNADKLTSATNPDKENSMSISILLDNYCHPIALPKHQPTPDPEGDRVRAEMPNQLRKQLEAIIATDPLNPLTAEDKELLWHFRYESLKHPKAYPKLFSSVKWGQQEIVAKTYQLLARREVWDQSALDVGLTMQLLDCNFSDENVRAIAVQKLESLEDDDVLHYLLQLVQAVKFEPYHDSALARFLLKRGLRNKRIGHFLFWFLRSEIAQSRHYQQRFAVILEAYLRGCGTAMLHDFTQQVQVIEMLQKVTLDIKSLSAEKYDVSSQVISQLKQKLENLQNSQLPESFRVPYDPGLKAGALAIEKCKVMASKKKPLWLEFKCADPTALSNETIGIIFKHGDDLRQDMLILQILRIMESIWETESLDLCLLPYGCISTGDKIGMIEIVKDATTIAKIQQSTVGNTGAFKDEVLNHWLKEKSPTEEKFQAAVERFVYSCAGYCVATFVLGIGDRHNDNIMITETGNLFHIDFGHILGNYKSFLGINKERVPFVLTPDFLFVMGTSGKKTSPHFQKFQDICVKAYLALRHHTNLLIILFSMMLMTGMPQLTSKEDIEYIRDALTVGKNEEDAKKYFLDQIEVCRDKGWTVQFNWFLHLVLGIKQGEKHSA

Compound	IC50 ([1]; Homo sapiens)	IC50 [2]	IC50 [3]	IC50 [1]
CCc1cn2c(-c3cc(S(=O)(=O)N[C@H]4CC[C@H](O)CC4)ccc3C)cnc2c(N)n1 [Example 38, 3-(8-Amino-6-ethylimidazo[1,2-a]pyrazin-3-yl)-N-(trans-4-hydroxycyclohexyl)-4-methylbenzenesulfonamide]	< 0.1 µM	< 0.1 µM	< 0.1 µM	–
Cc1ccc(S(=O)(=O)N[C@H]2CC[C@H](O)CC2)cc1-c1cnc2c(N)nccn12 [Example 13, 3-(8-Aminoimidazo[1,2-a]pyrazin-3-yl)-N-(trans-4-hydroxycyclohexyl)-4-methylbenzenesulfonamide]	0.1 to 0.5 µM	< 0.1 µM	0.1 to 0.5 µM	–
Cc1ccc(S(=O)(=O)N[C@H]2CC[C@H](O)CC2)cc1-c1cnc2c(N)nc(-c3cnn(C(C)(C)C#N)c3)cn12 [Example 78, 3-{8-amino-6-[1-(1-cyano-1-methylethyl)-1H-pyrazol-4-yl]imidazo[1,2-a]pyrazin-3-yl}-N-(trans-4-hydroxycyclohexyl)-4-methylbenzenesulfonamide]	0.5 to 1 µM	< 0.1 µM	0.1 to 0.5 µM	–
Cc1ccc(S(=O)(=O)NC2COC2)cc1-c1cnc2c(N)ncnn12 [Example 104, 3-(4-Aminoimidazo[1,2-f][1,2,4]triazin-7-yl)-4-methyl-N-(oxetan-3-yl)benzenesulfonamide]	–	< 0.1 µM	0.5 to 2 µM	0.5 to 1 µM
Cc1ccc(S(=O)(=O)N[C@H]2CC[C@H](O)CC2)cc1-c1cn2cc(-c3ccc(C#N)cc3)nc(N)c2n1 [Example 24, 3-[8-Amino-6-(4-cyanophenyl)imidazo[1,2-a]pyrazin-2-yl]-N-(trans-4-hydroxycyclohexyl)-4-methylbenzenesulfonamide]	–	< 0.1 µM	< 0.1 µM	0.1 to 0.5 µM
Cc1ccc(S(=O)(=O)N(C)[C@H]2CC[C@H](O)CC2)cc1-c1cnc2c(N)nccn12 [Example 52, 3-(8-Aminoimidazo[1,2-a]pyrazin-3-yl)-N-(trans-4-hydroxycyclohexyl)-N,4-dimethylbenzenesulfonamide]	0.5 to 1 µM	< 0.1 µM	0.1 to 0.5 µM	–
Cc1ccc(S(=O)(=O)N[C@H]2C[C@](C)(C#N)C2)cc1-c1cnc2c(N)ncnn12 [Example 87, 3-(4-Aminoimidazo[1,2-f][1,2,4]triazin-7-yl)-N-((1r,3r)-3-cyano-3-methylcyclobutyl)-4-methylbenzenesulfonamide trifluoroacetate salt]	–	< 0.1 µM	0.1 to 0.5 µM	0.1 to 0.5 µM
Cc1cc(-c2cn3c(-c4cc(S(=O)(=O)N[C@H]5CC[C@H](O)CC5)ccc4C)cnc3c(N)n2)on1 [Example 75, 3-[8-Amino-6-(3-methylisoxazol-5-yl)imidazo[1,2-a]pyrazin-3-yl]-N-(trans-4-hydroxycyclohexyl)-4-methylbenzenesulfonamide]	0.1 to 0.5 µM	< 0.1 µM	< 0.1 µM	–
Cc1ccc(S(=O)(=O)N[C@H]2C[C@H](C#N)C2)cc1-c1cnc2c(N)ncnn12 [Example 89, 3-(4-Aminoimidazo[1,2-f][1,2,4]triazin-7-yl)-N-((1r,3r)-3-cyanocyclobutyl)-4-methylbenzenesulfonamide trifluoroacetate salt]	–	< 0.1 µM	0.1 to 0.5 µM	< 0.1 µM

The next lines start with the values.

IC50 ([1]; Homo sapiens)	IC50 [2]	IC50 [3]	IC50 [1]	Compound
< 0.1 µM	< 0.1 µM	< 0.1 µM	–	O=C(O)C(F)(F)F.[2H]C([2H])([2H])c1ccc(S(=O)(=O)NC23CCC(CO)(C2)C3)cc1-c1cnc2c(N)nc(C)cn12 [Example 383, 3-(8-Amino-6-methylimidazo[1,2-a]pyrazin-3-yl)-N-(4-(hydroxymethyl)bicyclo[2.1.1]hexan-1-yl)-4-(methyl-d3)benzenesulfonamide trifluoroacetate salt]
0.1 to 0.5 µM	< 0.1 µM	0.1 to 0.5 µM	–	Cc1ccc(S(=O)(=O)NC23CCC(CC#N)(CC2)C3)cc1-c1cnc2c(N)ncnn12 [Example 430, 3-(4-Aminoimidazo[1,2-f][1,2,4]triazin-7-yl)-N-((1s,4s)-4-(cyanomethyl)bicyclo[2.2.1]heptan-1-yl)-4-methylbenzenesulfonamide trifluoroacetate salt]
< 0.1 µM	< 0.1 µM	0.1 to 0.5 µM	–	Cc1ccc(S(=O)(=O)N[C@H]2CC[C@H](CO)OC2)cc1-c1cnc2c(N)nc(C(F)(F)F)nn12 [Example 356, 3-(4-amino-2-(trifluoromethyl)imidazo[2,1-f][1,2,4]triazin-7-yl)-N-((3S,6R)-6-(hydroxymethyl)tetrahydro-2H-pyran-3-yl)-4-methylbenzenesulfonamide]
> 1 µM	< 0.1 µM	0.5 to 2 µM	–	Cc1ccc(S(N)(=O)=O)cc1-c1cnc2c(N)ncnn12 [Example 139, 3-(4-aminoimidazo[2,1-f][1,2,4]triazin-7-yl)-4-methylbenzenesulfonamide]
–	< 0.1 µM	0.1 to 0.5 µM	0.1 to 0.5 µM	Cc1nc(N)c2ncc(-c3cc(S(=O)(=O)NC45CCC(CO)(C4)C5)ccc3C)n2n1 [Example 268, 3-(4-Amino-2-methylimidazo[1,2-f][1,2,4]triazin-7-yl)-N-(4-(hydroxymethyl)bicyclo[2.1.1]hexan-1-yl)-4-methylbenzenesulfonamide trifluoroacetate salt]
–	< 0.1 µM	0.1 to 0.5 µM	0.1 to 0.5 µM	Cc1nc(N)c2ncc(-c3cc(S(=O)(=O)N[C@H]4CC[C@](C)(O)CC4)c(F)cc3C)n2n1 [Example 402, 5-(4-amino-2-methylimidazo[1,2-f][1,2,4]triazin-7-yl)-2-fluoro-N-((1r,4r)-4-hydroxy-4-methylcyclohexyl)-4-methylbenzenesulfonamide trifluoroacetate salt]
0.1 to 0.5 µM	< 0.1 µM	0.1 to 0.5 µM	–	Cc1ccc(S(=O)(=O)NC23COC(CO)(C2)C3)cc1-c1cnc2c(N)nc(C(F)(F)F)nn12 [Example 427, 3-(4-Amino-2-(trifluoromethyl)imidazo[1,2-f][1,2,4]triazin-7-yl)-N-(1-(hydroxymethyl)-2-oxabicyclo[2.1.1]hexan-4-yl)-4-methylbenzenesulfonamide trifluoroacetate salt]
0.1 to 0.5 µM	< 0.1 µM	0.1 to 0.5 µM	–	Nc1nc(C(F)(F)F)cn2c(-c3cccc(S(=O)(=O)NC45CCC(CO)(C4)C5)c3)cnc12 [Example 394, 3-(8-Amino-6-(trifluoromethyl)imidazo[1,2-a]pyrazin-3-yl)-N-(4-(hydroxymethyl)bicyclo[2.1.1]hexan-1-yl)benzenesulfonamide trifluoroacetate salt]
0.1 to 0.5 µM	< 0.1 µM	0.1 to 0.5 µM	–	Cc1ccc(S(=O)(=O)NC23CCC(C(C)(C)O)(CC2)OC3)cc1-c1cnc2c(N)nc(C(F)(F)F)cn12 [Example 441, 3-(8-Amino-6-(trifluoromethyl)imidazo[1,2-a]pyrazin-3-yl)-N-(1-(2-hydroxypropan-2-yl)-2-oxabicyclo[2.2.2]octan-4-yl)-4-methylbenzenesulfonamide trifluoroacetate salt]
–	< 0.1 µM	0.1 to 0.5 µM	< 0.1 µM	Cc1cc(F)c(S(=O)(=O)N[C@H]2CC[C@](C)(O)CC2)cc1-c1cnc2c(N)nc(C(F)(F)F)nn12 [Example 412, 5-(4-Amino-2-(trifluoromethyl)imidazo[1,2-f][1,2,4]triazin-7-yl)-2-fluoro-N-((1r,4r)-4-hydroxy-4-methylcyclohexyl)-4-methylbenzenesulfonamide trifluoroacetate salt]
0.1 to 0.5 µM	< 0.1 µM	0.1 to 0.5 µM	–	Cc1ccc(S(=O)(=O)NC23CCC(C(C)O)(CC2)OC3)cc1-c1cnc2c(N)ncnn12 (racemic) [Example 432, 3-(4-Aminoimidazo[1,2-f][1,2,4]triazin-7-yl)-N-(1-(1-hydroxyethyl)-2-oxabicyclo[2.2.2]octan-4-yl)-4-methylbenzenesulfonamide trifluoroacetate salt (racemic)]
< 0.1 µM	< 0.1 µM	0.1 to 0.5 µM	–	Cc1ccc(S(=O)(=O)N2CCC[C@H]2CO)cc1-c1cnc2c(N)nc(C(F)(F)F)nn12 [Example 347, (S)-(1-((3-(4-amino-2-(trifluoromethyl)imidazo[2,1-f][1,2,4]triazin-7-yl)-4-methylphenyl)sulfonyl)pyrrolidin-2-yl)methanol]

Source: US10479795B2 (Incyte Corporation, priority 2016, dated 2019)
